Data reported in publication PMC8037406, “Symbiotic NCR Peptide Fragments Affect the Viability, Morphology and Biofilm Formation of Candida Species” (International Journal of Molecular Sciences, 2021).
Where two headings read alike, the source gives them in different places. Where a SMILES comes first, the peptide text is derived from it.

Key:
[1] = test system: Candida parapsilosis CBS 604; test: microbe, parasite or virus in culture; assay type: cell-based; conditions: micro-dilution, YNB medium, 4 × 10^4 cell/mL, 48 h, 30 °C, OD 620 nm; MIC = growth inhibition ≥90%; peptides 25 to 1.56 µM, fluconazole 200 to 0.78 µM; three biological repeats in triplicates; note: key: -: no growth inhibition was observed
Protocol: (§1) The antifungal activity of all the 14 peptides was tested against the following opportunistic human pathogen Candida species and strains: C. albicans strains ATCC 10231, SC 5314 and SZMC 1458, C. auris 0381, C. glabrata CBS 138, C. parapsilosis CBS 604 and C. tropicalis CBS 94.
(§2) All the Candida strains (Table 4) were grown overnight in YPD medium (1% pepton, 1% dextrose, 0.5% yeast extract) at 30 °C in water bath shaker prior to each experiments. The cells were harvested by centrifugation (5 min, 3000× g) washed twice with sterile distilled water and suspended in 5-fold diluted Difco Yeast Nitrogen Base w/o Amino Acids medium (Becton, Dickinson and Company, Sparks, MD, USA) supplemented with 1% dextrose, referred to as YNB medium in the text. Cells were counted in Bürker chamber and diluted to the proper concentration.
(§3) The growth inhibition of the peptides listed in Table 1 was tested in 96-well microtiter plates on Candida strains. The minimal inhibitory concentration (MIC) was determined with the micro-dilution method by adding 5 µL serially two-fold-diluted peptide solution to 95 µL of cell suspension (4 × 10^4 cell/mL) in YNB medium. After 48 h of incubation at 30 °C the optical density of the cultures was measured at 620 nm in SPECTROstar Nano plate reader (BMG LabTech, Offenburg, Germany). Minimal inhibitory concentration was defined as growth inhibition ≥90% compared to 100% growth of the untreated control. The experiments were carried out in three biological repeats always in triplicates.

[2] = test system: Candida cells; test: Fungicide effect, spotting of treated cells on solid YPD medium; assay type: cell-based, Candida species; conditions: 1.56–25 µM, 24 h treatment, dilutions spotted on solid YPD medium, 48 h, 30 °C
Protocol: To determine whether the inhibitory effect of the peptides is generated by fungistatic or fungicide action, the Candida cells were treated with the peptides in the same concentration range (1.56–25 µM) as in the growth inhibition assay. After 24 h 5 µL sample from the untreated control cells and from the peptide treated cells was added to 95 µL water and diluted further 10- and 100-fold. From each dilution, 5 µL was placed on solid medium and the growth of the control and peptide treated cells was compared after 48 h incubation at 30 °C. This assay confirmed that all the effective peptides, NCR335N1–19, NCR335N7–21, NCR335C1–33, NCR335C13–33, NCR335C17–33, NCR169C17–38, NCR169C17–38ox, NCR169C17–38W10,20/A provoked growth inhibition through fungicidal actions (Figure A2). The fungicide concentrations, required for the complete elimination of the Candida cells, were either equal to or twice higher than the minimum inhibitory concentrations presented in Table 2.
The same initial experimental setting was used to determine the fungicide effect of the peptides. Five µL samples were taken from the cultures after 24 h and were added to 95 µL sterile distilled water, and diluted to 10- and 100-fold (indicated as 10^4, 10^3 and 10^2 based on the cell number of the control culture in Figure A2). Five µL from each dilution were placed on solid YPD medium and the growth of the strains was detected after 48 h incubation at 30 °C.

[3] = test system: C. albicans ATCC 10231; test: Yeast-hypha morphology, bright-field microscopy; assay type: cell-based, Candida albicans; conditions: 3.12 µM peptide, 48 h, 1/8AIM medium, sub-lethal concentration
Source text: (§4) As hyphae formation is an important virulence factor, we investigated how the broad range activity peptides, NCR335C17–33, NCR169C17–38 and NCR169C17–38ox affect the morphological switch of C. albicans ATCC 10231 and C. tropicalis between the hyphal and yeast growth forms at sub-lethal concentrations (Figure 1). […] However, not only the morphology changed, but the cell number also declined, particularly in the latter case.
(§5) To induce morphological change of C. albicans and C. tropicalis YNB medium was changed for eight-fold diluted AIM-V+AlbuMAX (BSA) medium (Gibco, Thermo Fisher Scientific, Dublin, Ireland) referred to as 1/8AIM in the text.
(§6) Bright-field microscopy. The morphology of C. albicans ATCC 10231 and C. tropicalis cells was examined after 48 h incubation with the selected peptides (NCR335C17–33 and NCR169C17–38) by Zeiss Axio Observer inverted microscope (Carl Zeiss AG, Jena, Germany). The concentration of the NCR335C17–33 was 1.56 and 3.12 µM, NCR169C17–38 1.56 or 3.12 µM while NCR169C17–38ox 0.78 or 3.12 µM, the initial cell concentration was set to 4 × 10^4 cell/mL. Cells cultivated without peptides were used as control.

[4] = test system: C. tropicalis CBS 94; test: Yeast-hypha morphology, bright-field microscopy; assay type: cell-based, Candida tropicalis; conditions: 1.56 µM peptide, 48 h, 1/8AIM medium
Source text: as §4, §5, §6

[5] = test system: C. albicans ATCC 10231 biofilm; test: Biofilm formation assay, XTT; assay type: cell-based, Candida albicans; conditions: 72 h, 37 °C, 5 % CO2, 1/8AIM medium, p ≤ 0.0001
[6] = test system: C. albicans SC 5314 biofilm; test: Biofilm formation assay, XTT; assay type: cell-based, Candida albicans; conditions: 72 h, 37 °C, 5 % CO2, 1/8AIM medium, p ≤ 0.0001
[7] = test system: C. albicans SZMC 1458 biofilm; test: Biofilm formation assay, XTT; assay type: cell-based, Candida albicans; conditions: 72 h, 37 °C, 5 % CO2, 1/8AIM medium, p ≤ 0.0001
[8] = test system: C. tropicalis CBS 94 biofilm; test: Biofilm formation assay, XTT; assay type: cell-based, Candida tropicalis; conditions: 72 h, 37 °C, 5 % CO2, 1/8AIM medium, p ≤ 0.0001
[9] = test system: C. albicans ATCC 10231 biofilm; test: Morphology of biofilm-located cells, scanning electron microscopy; assay type: cell-based, Candida albicans; conditions: SEM, 72 h, 37 °C, sub-lethal concentrations
[10] = test system: C. tropicalis CBS 94 biofilm; test: as above; assay type: cell-based, Candida tropicalis; conditions: SEM, 72 h, 37 °C, 1.56 µM peptide
[11] = test system: C. auris; conditions: for reduction of MIC in the synergistic combination: compared with single use
Protocol: Amphotericin B, due to its high toxicity was not included in this assay.
The effects of the different combinations of fluconazole and NCR335C17–33, NCR169C17–38 or NCR169C17–38ox were determined by standard checkerboard titration method. The fluconazole was tested in a concentration range from 6.25 to 75 µM, NCR169C17–38 and NCR169C17–38ox from 0.78 to 12.50 µM, NCR335C17–33 from 1.56 to 25 µM. The initial cell concentration in each well was 4 × 10^4 cell/mL. After the incubation for 72 h at 30 °C, the optical density of the cultures was detected at 620 nm in SPECTROstar Nano plate reader (BMG LabTech, Offenburg, Germany). The inhibitory concentrations were determined for each compound alone and in combinations. The experiments were carried out at least three times. The effect of combinations was evaluated by fractional inhibitory concentration (FIC) index. FIC = FICA + FICB. FICA = (MICA in combination)/(MICA alone); FICB = (MICB in combination)/(MICB alone)

[12] = test system: Candida auris 0381; test: microbe, parasite or virus in culture; assay type: cell-based; conditions: micro-dilution, YNB medium, 4 × 10^4 cell/mL, 48 h, 30 °C, OD 620 nm; MIC = growth inhibition ≥90%; peptides 25 to 1.56 µM, fluconazole 200 to 0.78 µM; three biological repeats in triplicates; note: key: -: no growth inhibition was observed
Protocol: as §1, §2, §3

[13] = NCR169C17–38 + NCR169C17–38ox, C. auris
[14] = NCR169C17–38 + NCR335C17–33, C. auris
[15] = checkerboard, C. auris, 72 h, 30 °C, drug A fluconazole + drug B NCR169C17–38

SMILES	growth inhibition by fungistatic or fungicide action [2]	effect on hyphal growth [3]	effect on hyphal/yeast growth form [4]	concentration significantly inhibiting biofilm formation, relative to MIC [5]	concentration significantly inhibiting biofilm formation, relative to MIC [6]	concentration significantly inhibiting biofilm formation, relative to MIC [7]	concentration significantly inhibiting biofilm formation, relative to MIC [8]	morphology of cells in the biofilm [9]	morphology of cells in the biofilm [10]	Action [11, 14]	other results
CC[C@H](C)[C@H](NC(=O)[C@H](CCCCN)NC(=O)[C@H](Cc1ccccc1)NC(=O)[C@H](CC(C)C)NC(=O)[C@@H]1CCCN1C(=O)[C@H](CCCCN)NC(=O)[C@H](CCCCN)NC(=O)[C@H](CO)NC(=O)[C@@H](N)CCCCN)C(=O)N[C@@H](Cc1c[nH]c2ccccc12)C(=O)N[C@@H](CCCCN)C(=O)N[C@@H](CS)C(=O)N[C@H](C(=O)N[C@@H](CCC(=O)O)C(=O)N[C@@H](CC(N)=O)C(=O)N[C@H](C(=O)N[C@@H](CS)C(=O)N[C@H](C(=O)N[C@@H](CC(C)C)C(=O)N[C@@H](Cc1c[nH]c2ccccc12)C(=O)N[C@@H](Cc1ccc(O)cc1)C(=O)N[C@@H](CCCCN)C(N)=O)C(C)C)C(C)C)C(C)C [NCR169C17–38] (H-KSKKPLFKIWKCVENVCVLWYK-NH2; N-terminus assumed)	fungicidal	completely inhibited the hyphal growth	shifted to the yeast form	half MIC	one-fourth of the MIC	MIC	half MIC	reduced the abundance of the hyphal form	the cell number was drastically reduced, and the yeast form was also dominant	Synergism	Minimal inhibitory concentration, Cp CBS 604 [1]: -; Action [11, 13]: Synergism; reduction of MIC in the synergistic combination [11, 13]: 2 ×; reduction of MIC in the synergistic combination ([11]; NCR169C17–38 + NCR335C17–33 (3.12 μM), C. auris): 4 ×; concentration of drug A for the indicated action ([11]; checkerboard, C. auris, 72 h, 30 °C, drug A NCR169C17–38 + drug B NCR169C17–38ox): 3.12 µM; FICB [11, 15]: 0.125; concentration of drug B for the indicated action [11, 15]: 0.78 µM; Action ([11]; fluconazole + NCR169C17–38, C. auris): Additive
CC[C@H](C)[C@H](NC(=O)[C@@H]1CCCN1C(=O)[C@@H](NC(=O)[C@H](CS)NC(=O)[C@H](Cc1ccc(O)cc1)NC(=O)[C@H](CO)NC(=O)[C@H](CCCCN)NC(=O)[C@H](CCCNC(=N)N)NC(=O)[C@H](CS)NC(=O)[C@H](CCCNC(=N)N)NC(=O)[C@@H](NC(=O)[C@H](CC(N)=O)NC(=O)[C@H](C)NC(=O)[C@H](CCCNC(=N)N)NC(=O)[C@H](CCCNC(=N)N)NC(=O)[C@H](CC(C)C)NC(=O)[C@@H](N)CCCCN)C(C)C)C(C)C)C(N)=O [NCR335C17–33] (H-KLRRANVRCRKSYCVPI-NH2; N-terminus assumed)	fungicidal	completely inhibited the hyphal growth	shifted to the yeast form	half MIC	half MIC	half MIC	MIC	reduced the abundance of the hyphal form	practically only the yeast form was present	Synergism	Minimal inhibitory concentration, Cau 0381 [12]: -; concentration of drug B for the indicated action ([11]; checkerboard, C. auris, 72 h, 30 °C, drug A NCR169C17–38 + drug B NCR335C17–33): 3.12 µM; FICB ([11]; checkerboard, C. auris, 72 h, 30 °C, drug A NCR169C17–38 + drug B NCR335C17–33, * fictitious value, 25 µM used as MIC of NCR335C17–33): ≤ 0.25; Action ([11]; fluconazole + NCR335C17–33, C. auris): Indifferent
